This passage reports TGI and GI50 results from PubChem BioAssay (NCI).

Common to all, as to assay: NCI tumour cell line growth inhibition, 48 h
For assay [1], the system named is CAKI-1 renal.
Assay [2] deals with K-562 leukemia.
Assay [3] concerns KM12 colon.
Assay [4] deals with NCI-H226 lung.
The test system of assay [5] is OVCAR-5 ovarian.
In assay [6] the test system is OVCAR-8 ovarian.
Assay [7] concerns SK-MEL-2 melanoma.
Assay [8] deals with SK-MEL-28 melanoma.
Assay [9] concerns HS 578T breast.

Molecules are shown by their SMILES. Values joined by “and” are separate entries in the source; they are usually repeats but may differ in a detail not shown here. Equal entries are not always repeated.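 A five-concentration, 48-hour dose response in 96-well plates underlies each endpoint, interpolated linearly between surrounding concentrations. GI50 marks 50% less growth. At the TGI there is no net growth.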

On to `O=S(=O)(c1ccccc1)C1(C2(S(=O)(=O)c3ccccc3)CCN=N2)CCN=N1` (configuration not stated), for which the TGI in [1], in [2], in [3], in [4], in assay [5] and in [6] was more than 100 µM throughout. In addition, the TGI in [7] and in [8] was more than 100 µM each time.

For `CCCOC(=O)C1C(c2ccc(OC)cc2)NC(c2ccc(OC)cc2)C(C(=O)OCCC)S1(=O)=O` (configuration not stated), the GI50 in [1], in assay [2], in assay [3], in assay [4], in assay [5] and in [6] was more than 100 µM in each case. Besides, the GI50 in assay [7] and in [8] was more than 100 µM in each case. Moreover, the TGI in assay [1], in assay [2], in assay [3], in assay [4], in assay [5] and in assay [6] was more than 100 µM in each case. Besides, the TGI in assay [7] and in assay [8] was more than 100 µM each time.

With `COC(=O)C(C(=O)C(=O)Nc1nc2ccc(OC)cc2s1)c1cnc2ccccc2n1` (configuration not stated), the TGI in [1], in assay [2], in assay [3], in [4], in [5] and in [8] was more than 100 µM each time.

As for `Cc1cc(N)c2cc(NC(=O)/C=C\c3ccccc3Cl)ccc2n1`, the GI50 was 1.77 µM in [1]; 1.82 µM in assay [9]; 0.416 µM in assay [2]; 0.767 µM in [3]; 2.01 µM in assay [4]; 1.33 µM in assay [5]. The GI50 in assay [6] was 1.61 µM; in assay [7], 1.83 µM; in assay [8], 0.447 µM. The TGI in assay [1] amounted to 3.24 µM; in [9] it was 3.88 µM; in assay [2], 1.48 µM; in assay [3], 2.11 µM; in assay [4], 3.69 µM; in assay [5] it was 2.69 µM. For the same molecule, the TGI in [6] was determined as 3.12 µM; in [7] it was 3.34 µM; in assay [8], 0.886 µM.

With `O=C1CC2=CCCC2O1` (configuration not stated), the TGI in assay [1], in assay [2], in assay [3], in assay [6], in assay [7] and in [8] was more than 100 µM throughout.

As for `CC[P+](C)(C)CC`, the TGI in assay [2], in assay [3], in assay [4], in [5], in assay [6] and in assay [7] was more than 100 µM in each case. In assay [8], this molecule had a TGI of more than 100 µM.

As to `Oc1ccc(Br)cc1C=Nc1ccc(Oc2ccc(N=Cc3cc(Br)ccc3O)cc2)cc1`, the TGI in assay [1], in assay [2], in [3], in assay [4], in assay [5] and in assay [6] was more than 19.6 µM in each case. Besides, the TGI in [7] and in assay [8] was more than 19.6 µM throughout.

For `COc1ccc(C2=NC(CO)[C@H](c3ccccc3)O2)cc1OC` (some centres not stated), the TGI in assay [1], in assay [2], in assay [3], in [4], in assay [5] and in assay [6] was more than 100 µM throughout. Moreover, the TGI in [7] was more than 100 µM.

Regarding `CC[C@@]1(O)C(=O)OCc2c1cc1n(c2=O)Cc2cc3c(N)c(OC)ccc3nc2-1`, the GI50 is 0.0251 µM in assay [1]; 0.152 µM in assay [2]; 0.292 µM in assay [3]; 1.77 µM in assay [4]; 0.0543 µM in [5]; 0.439 µM in [7]. In addition, the GI50 in assay [8] was 0.466 µM. The TGI in assay [1] was 0.796 µM; in [3], 2.24 µM; in [4], more than 100 µM; in assay [5] it was 0.842 µM; in assay [7] it was 1.47 µM.

For the molecule `O=S(=O)([O-])c1ccc(C=Nc2ccccc2)c([O-])c1.O=S(=O)([O-])c1ccc(C=Nc2ccccc2)c([O-])c1.[Co+2]`, the GI50 was 2.07 µM in assay [2]; 65.4 µM in [3]; 17.7 µM in [4]; 16.1 µM in assay [5]; 50.6 µM in [6]; 77.8 µM in assay [7]. Besides, the GI50 in assay [8] was more than 100 µM. Moreover, the TGI in [2], in [3], in assay [4], in [5], in [6] and in assay [7] was more than 100 µM each time. The TGI in [8] is more than 100 µM.

Regarding `O=C1c2ccccc2C(=O)N1CCN(CCN1C(=O)c2ccccc2C1=O)Cc1ccccc1`, the TGI in [1], in assay [2], in [3], in assay [6], in assay [7] and in [8] was more than 100 µM throughout.

In the case of `COc1ccc(C)cc1-c1ccc(-c2cc(C)ccc2OC)o1`, the TGI in [1], in [2], in assay [3], in assay [4], in [5] and in assay [6] was more than 100 µM each time. Moreover, the TGI in assay [7] and in assay [8] was more than 100 µM throughout.

On to `COc1cc(Br)c(C=Nc2cccc3ccc(OS(=O)(=O)c4ccc([N+](=O)[O-])cc4)cc23)cc1OC`, for which the TGI in [1], in [3], in [4], in assay [5], in [6] and in assay [7] was more than 100 µM throughout. This molecule yielded a TGI in [8] of more than 100 µM.

On to `O=C1C=C(c2ccccc2)NC1(c1ccccc1)c1cc(-c2ccccc2)[nH]c1-c1ccccc1` (configuration not stated), for which the TGI in [1], in [2], in assay [3], in assay [6], in assay [7] and in assay [8] was more than 100 µM throughout.

Turning to `O=C1CC[C@@H]2[C@H]3CCC(=O)c4c3c(c3cccc(O)c3c4O)O[C@@]23C(=O)c2cccc(O)c2C(O)=C13`, the GI50 in [9], in [2], in [3], in assay [4], in [5] and in assay [6] was more than 100 µM each time. In addition, the figures for the GI50 in assay [7] and in assay [8] were 74.4 µM and more than 100 µM, respectively. For the same molecule, the TGI in assay [9], in [2], in assay [3], in [4], in assay [5] and in assay [6] was more than 100 µM in each case. Moreover, the TGI in [7] and in [8] was more than 100 µM throughout.

`C=CCN=C1NC(=O)C(CC(=O)Nc2ccc([N+](=O)[O-])cc2[N+](=O)[O-])S1` (configuration not stated): the TGI in assay [1], in [3], in assay [4], in assay [5], in assay [6] and in assay [7] was more than 100 µM each time. The molecule also yielded a TGI in [8] of more than 100 µM.

On to `CC(C)CC1CC2C(=O)N(c3ccccc3)C(=O)C2c2[nH]c3ccccc3c21` (configuration not stated), for which the TGI is 72.7 µM in assay [1]; more than 42.7 µM in [2]; more than 100 µM in assay [3]; 66.1 µM in [4]; more than 100 µM in assay [5]; 51.6 µM in assay [6]. Also, the TGI is 59.8 µM in assay [7] and more than 55.7 µM in [8].

As to `NC(=O)c1c(-c2ccccc2)c(-c2ccccc2)cc2c(=O)c3ccccc3[nH]c12`, the TGI in assay [2] is more than 100 µM; in assay [3], 78.6 µM; in [5], more than 100 µM; in [6], 50 µM; in [7], 45.1 µM; in assay [8], 37.6 µM.

On to `COc1ccc(-c2cc(-c3ccco3)c(C#N)c(=O)n2C2OC(COC(C)=O)C(OC(C)=O)C(OC(C)=O)C2OC(C)=O)cc1` (configuration not stated), for which the TGI in [1] is more than 100 µM; in assay [2] it was more than 100 µM; in assay [3], more than 100 µM; in [5], more than 100 µM; in [6] it was > 100 µM and 40.4 µM; in assay [7] it was > 100 µM and 50.8 µM. In addition, in assay [8], the TGI was more than 100 µM. Moreover, the GI50 in assay [2] was 48.1 µM and 8.84 µM; in [6], > 100 µM and 10.9 µM; in [7], > 100 µM and 14.5 µM; in assay [8] it was > 100 µM and 26.7 µM.

As for `NNC(=O)C(=O)N/N=C1\CCCC1C(=O)CCC(=O)Nc1cccc(Cl)c1` (configuration not stated), the TGI in [3], in assay [4], in assay [5], in assay [6], in assay [7] and in assay [8] was more than 100 µM in each case.

As to `COC(=O)N1C=CC2=C(C)C3Nc4ccccc4C3C(C)=C2C1` (configuration not stated), the TGI is more than 100 µM in assay [1]; 14.5 µM in assay [2]; 5.1 µM in [4]; more than 100 µM in assay [5]; 7.5 µM in assay [6]; 2.95 µM in assay [7]. Further, the TGI in assay [8] was more than 100 µM.

For the molecule `NNC(=S)N/N=C(\c1nc2ccc(Cl)cc2[nH]c1=O)C(O)c1cccc([N+](=O)[O-])c1` (configuration not stated), the TGI is more than 100 µM in assay [1]; more than 70.2 µM in [2]; more than 100 µM in [3]; more than 100 µM in assay [4]; more than 100 µM in assay [5]; more than 100 µM in assay [6]. The TGI is more than 100 µM in assay [7] and more than 79.4 µM in assay [8].

With `N/N=C1\C(=O)N(c2ccc(Cl)c(Cl)c2)C(=O)C1C(=O)Nc1ccc(Cl)c(Cl)c1` (configuration not stated), the TGI in assay [2], in assay [3], in assay [5], in assay [6], in [7] and in assay [8] was more than 100 µM in each case.

For `CN(C)c1ccc(-c2nc(N)nc3c2CCCC3)cc1`, the TGI in assay [1], in assay [2], in [3], in assay [4], in [5] and in assay [6] was more than 100 µM each time. Moreover, the TGI in assay [7] and in assay [8] was more than 100 µM in each case.

Turning to `CCOC(=O)C(c1ccsc1)P(=O)(OCC)OCC` (configuration not stated), the TGI in assay [1] was determined as 27.9 µM; in assay [3], 28.4 µM; in [4], 35.8 µM; in [5], 37.7 µM; in [6] it was 43.3 µM; in assay [7], 39.9 µM. In [8], this molecule gave a TGI of 32.4 µM.

Turning to `Cc1ccc(C)c(NC(=O)C(=O)C(C2C(C)CC(=O)C2CC(=O)O)[N+](=O)[O-])c1` (configuration not stated), the TGI in assay [1], in assay [2], in assay [3], in [4], in assay [5] and in assay [7] was more than 100 µM throughout. The TGI in assay [8] was more than 100 µM.

Regarding `CC1(C)CCOC(Sc2ccccc2)C1` (configuration not stated), the TGI in assay [1] was more than 100 µM; in [2] it was more than 100 µM; in assay [3], more than 100 µM; in assay [6], more than 100 µM; in [7], 69.9 µM; in assay [8] it was more than 100 µM.

Take `Nc1ncnc2c1ncn2C1(CO)OC(CO)C(O)C1O` (configuration not stated): the TGI in assay [1], in assay [3], in [4], in assay [5], in assay [7] and in [8] was more than 100 µM throughout.

As to `CCOC(=O)c1ccc(N[C@@H]2c3cc4c(cc3C(c3cc(OC)c(O)c(OC)c3)[C@H]3C(=O)OCC32)OCO4)cc1` (some centres not stated), the GI50 in [1] is 0.109 µM; in assay [2], 0.662 µM and 1.44 µM; in [3] it was 0.875 µM; in assay [5], 0.646 µM; in assay [6] it was 0.479 µM; in [8], 0.935 µM. The TGI in assay [1] was 0.854 µM and 3.88 µM; in [2], 27.2 µM; in assay [3], 5.29 µM; in assay [4], 0.719 µM and 1.95 µM; in assay [5], 6.16 µM; in assay [6] it was 6.49 µM. Moreover, the TGI in assay [7] was found to be 6.27 µM; in assay [8], 8.59 µM.
